# Results published in the supplement of paper PMC11061612.
# Legend:
# Experiment in all cases: Bliss excess, mean over the matrix (fraction); higher = more synergy
# [1] = test system: VMRC-LCD (Lung Adenocarcinoma)
# In short: (§1)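 After 24 hours at 37°C and 5% CO2 in 1536-well plates, cells in DMEM/F12 or RPMI plus 10% FBS received two-drug dose matrices for 72 hours. Viability came from CellTiter-Glo 2.0 luminescence and was scaled as inhibition, anchored at 0 by vehicle wells and at 1 by blank wells. Combination Emax is taken as the second-highest inhibition in the matrix, and Bliss excess as the observed combination effect less EA + EB − EA·EB, with EA and EB the single-agent effects.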
# [2] = test system: EBC-1 (Squamous Cell Lung Carcinoma)
# In short: as §1
# [3] = test system: LOU-NH91 (Squamous Cell Lung Carcinoma)
# In short: as §1
# [4] = test system: KYSE-50 (Esophageal Squamous Cell Carcinoma)
# In short: as §1
# [5] = test system: OVISE (Ovarian Carcinoma)
# In short: as §1
# [6] = test system: BV-173 (Chronic Myelogenous Leukemia)
# In short: as §1
# [7] = test system: KU-19-19 (Bladder Carcinoma)
# In short: as §1
# [8] = test system: KLE (Endometrial Carcinoma)
# In short: as §1
# [9] = test system: SCC-3 (B-Cell Non-Hodgkin's Lymphoma)
# In short: as §1
# GOTO (Neuroblastoma) = test system: GOTO (Neuroblastoma)
# In short: as §1
# [10] = test system: NCI-H1573 (Lung Adenocarcinoma)
# In short: as §1
# EW-3 (Ewing's Sarcoma) = test system: EW-3 (Ewing's Sarcoma)
# In short: as §1
# [11] = test system: JHH-7 (Hepatocellular Carcinoma)
# In short: as §1
# [12] = test system: HC-1 (Other Blood Carcinomas)
# In short: as §1
# [13] = test system: KP-2 (Pancreatic Carcinoma)
# In short: as §1
# [14] = test system: H-EMC-SS (Chondrosarcoma)
# In short: as §1
# [15] = test system: KINGS-1 (Low Grade Glioma)
# In short: as §1
# [16] = test system: MFE-319 (Endometrial Carcinoma)
# In short: as §1
# [17] = test system: OCUM-1 (Gastric Carcinoma)
# In short: as §1
# [18] = test system: PF-382 (T-Lymphoblastic Leukemia)
# In short: as §1
Structure (SMILES),Bliss excess [1],Bliss excess [2],Bliss excess [3],Bliss excess [4],Bliss excess [5],Bliss excess [6],Bliss excess [7],Bliss excess [8],Bliss excess [9],Bliss excess (GOTO (Neuroblastoma)),Bliss excess [10],Bliss excess (EW-3 (Ewing's Sarcoma)),Bliss excess [11],Bliss excess [12],Bliss excess [13],Bliss excess [14],Bliss excess [15],Bliss excess [16],Bliss excess [17],Bliss excess [18]
"NC1(C(=O)N[C@@H](CCO)c2ccc(Cl)cc2)CCN(c2ncnc3[nH]ccc23)CC1 [Capivasertib] + Cn1cnc2c(F)c(Nc3ccc(Br)cc3Cl)c(C(=O)NOCCO)cc21 [Selumetinib] (first compound max 10 µM, 7x7, partner max 10 µM)",0.0047,0.0557,-0.0027,-0.036,-0.0063,0.0219,-0.0364,-0.011,0.0627,0.0355,0.0019,-0.0091,-0.0455,0.0123,0.0094,0.0635,0.0272,0.0088,-0.0299,0.0266
"C[C@@H]1COCCN1c1cc(C2([S@](C)(=N)=O)CC2)nc(-c2ccnc3[nH]ccc23)n1 [AZD6738] + O=C(c1cc(Cc2n[nH]c(=O)c3ccccc23)ccc1F)N1CCN(C(=O)C2CC2)CC1 [Olaparib] (first compound max 10 µM, 7x7, partner max 10 µM)",-0.0231,-0.0153,0.0035,-0.0202,0.0393,-0.0099,-0.032,-0.0307,0.0103,-0.0645,0.0201,-0.0558,0.0012,-0.0238,0.0024,-0.0558,0.0032,-0.0089,-0.0399,-0.0167
"CC(=O)c1c(C)c2cnc(Nc3ccc(N4CCNCC4)cn3)nc2n(C2CCCC2)c1=O [Palbociclib] + CC1(C)CCC(CN2CCN(c3ccc(C(=O)NS(=O)(=O)c4ccc(NCC5CCOCC5)c([N+](=O)[O-])c4)c(Oc4cnc5[nH]ccc5c4)c3)CC2)=C(c2ccc(Cl)cc2)C1 [Venetoclax] (first compound max 10 µM, 7x7, partner max 1 µM)",-0.0377,0.0208,-0.0489,0.0238,-0.0422,0.0021,-0.0135,-0.0355,0.0411,-0.0317,0.0244,0.0792,-0.0474,0.0552,-0.0425,0.0118,0.0075,-0.0586,-0.0515,0.0031
"CS(=O)(=O)CCNCc1ccc(-c2ccc3ncnc(Nc4ccc(OCc5cccc(F)c5)c(Cl)c4)c3c2)o1 [Lapatinib] + C[C@@H](Oc1cc(-c2cnn(C3CCNCC3)c2)cnc1N)c1c(Cl)ccc(F)c1Cl [Crizotinib] (first compound max 10 µM, 7x7, partner max 10 µM)",-0.0246,0.0978,0.0284,-0.0352,0,-0.037,-0.034,-0.0215,0.0226,-0.0499,0.121,-0.0505,-0.0055,-0.0124,-0.0353,-0.0192,0.0032,-0.0205,-0.0252,-0.0296
"CN(CCO)CC[C@H](CSc1ccccc1)Nc1ccc(S(=O)(=O)NC(=O)c2ccc(N3CCC([C@@H](O)c4ccccc4-c4ccc(Cl)cc4)CC3)cc2)cc1S(=O)(=O)C(F)(F)F [AZD4320] + Cn1cnc2c(F)c(Nc3ccc(Br)cc3Cl)c(C(=O)NOCCO)cc21 [Selumetinib] (first compound max 1 µM, 7x7, partner max 3 µM)",0.0277,0.0478,0.0027,0.0405,0.024,-0.018,0.0193,0.0087,0.0222,0.13,0.0027,-0.0118,-0.0214,0.0026,0.0496,-0.0378,0.0328,0.0645,0.0319,0.0409
"CCN(CCO)CCCOc1ccc2c(Nc3cc(CC(=O)Nc4cccc(F)c4)[nH]n3)ncnc2c1 [AZD2811] + C=CCn1c(=O)c2cnc(Nc3ccc(N4CCN(C)CC4)cc3)nc2n1-c1cccc(C(C)(C)O)n1 [AZD1775] (first compound max 1 µM, partner max 1 µM)",0.0049,0.0075,-0.0257,0.0006,-0.0332,-0.0222,-0.014,-0.0513,-0.011,-0.0162,-0.0457,0.0844,-0.0186,0.0697,-0.001,-0.0261,-0.0173,-0.0361,-0.0127,-0.0432
"COc1nnc2ccc(N3CCC(c4ccc(OCCN5CCN(C)C(=O)[C@H]5C)cc4)CC3)nn12 [AZD5153] + C=CCn1c(=O)c2cnc(Nc3ccc(N4CCN(C)CC4)cc3)nc2n1-c1cccc(C(C)(C)O)n1 [AZD1775] (first compound max 1 µM, partner max 1 µM)",-0.0025,0.005,0.0216,0.0211,-0.0081,-0.0256,-0.121,-0.0754,-0.046,-0.0756,-0.0197,-0.122,-0.0749,-0.078,-0.0288,-0.0488,-0.0123,-0.13,-0.0217,-0.0176
"CC1(C)CCC(CN2CCN(c3ccc(C(=O)NS(=O)(=O)c4ccc(NCC5CCOCC5)c([N+](=O)[O-])c4)c(Oc4cnc5[nH]ccc5c4)c3)CC2)=C(c2ccc(Cl)cc2)C1 [Venetoclax] + C=CCn1c(=O)c2cnc(Nc3ccc(N4CCN(C)CC4)cc3)nc2n1-c1cccc(C(C)(C)O)n1 [AZD1775] (first compound max 1 µM, partner max 1 µM)",-0.0174,0.0315,-0.0815,-0.0395,-0.0676,-0.0206,-0.023,-0.0043,-0.0024,0.0047,-0.0513,0.0735,0.0071,0.0665,-0.0068,-0.0532,0.0375,-0.0129,0.0513,-0.0639
"Cc1c2c(nn1C)CSCc1cc(n(C)n1)CSc1cc(c3ccccc3c1)OCCCc1c(C(=O)O)n(C)c3c-2c(Cl)ccc13 [AZD5991] + C1CN(CCC1(C(=O)N[C@@H](CCO)C2=CC=C(C=C2)Cl)N)C3=NC=NC4=C3C=CN4 [Capivasertib] (first compound max 1 µM, 7x7, partner max 3 µM)",-0.0416,0.0259,0.0122,-0.0036,-0.0651,-0.0621,-0.0321,-0.01,0.102,0.0118,0.0057,0.0032,-0.0118,-0.0475,-0.01,-0.0227,-0.0468,0.111,-0.0032,-0.0203
"CN(CCO)CC[C@H](CSc1ccccc1)Nc1ccc(S(=O)(=O)NC(=O)c2ccc(N3CCC([C@@H](O)c4ccccc4-c4ccc(Cl)cc4)CC3)cc2)cc1S(=O)(=O)C(F)(F)F [AZD4320] + C[C@@H]1COCCN1C2=NC(=NC(=C2)C3(CC3)[S@](=N)(=O)C)C4=C5C=CNC5=NC=C4 [AZD6738] (first compound max 1 µM, 7x7, partner max 10 µM)",-0.0764,-0.015,0.0126,-0.0537,-0.0206,-0.0453,-0.0381,-0.0709,0.014,-0.0126,-0.0524,-0.0236,0.0174,0.0127,-0.104,-0.0351,-0.0806,-0.0119,-0.0134,-0.0126
"CC1(C)CCC(CN2CCN(c3ccc(C(=O)NS(=O)(=O)c4ccc(NCC5CCOCC5)c([N+](=O)[O-])c4)c(Oc4cnc5[nH]ccc5c4)c3)CC2)=C(c2ccc(Cl)cc2)C1 [Venetoclax] + Cn1cnc2c(F)c(Nc3ccc(Br)cc3Cl)c(C(=O)NOCCO)cc21 [Selumetinib] (first compound max 1 µM, 7x7, partner max 3 µM)",-0.0386,-0.0542,-0.0291,-0.0104,-0.0678,-0.0183,0.0087,-0.0704,0.028,-0.0679,-0.0431,-0.0413,-0.0442,0.0509,-0.0177,-0.0381,-0.0469,-0.0034,-0.0508,-0.0038
"Cc1cc2ncnn2cc1Nc1ncc2c(n1)n(C1CCOCC1)c(=O)n2C [AZD7648] + CCN(CCO)CCCOc1ccc2c(Nc3cc(CC(=O)Nc4cccc(F)c4)[nH]n3)ncnc2c1 [AZD2811] (first compound max 10 µM, 7x7, partner max 1 µM)",-0.0267,0.0147,0.0693,0.0784,-0.0105,-0.025,0.0227,-0.0193,0.0548,0.0582,0.0382,-0.0156,-0.0244,0.0045,-0.0206,-0.0452,0.0339,0.0419,-0.0093,0.0137
"CN(CCO)CC[C@H](CSc1ccccc1)Nc1ccc(S(=O)(=O)NC(=O)c2ccc(N3CCC([C@@H](O)c4ccccc4-c4ccc(Cl)cc4)CC3)cc2)cc1S(=O)(=O)C(F)(F)F [AZD4320] + CCN(CCO)CCCOc1ccc2c(Nc3cc(CC(=O)Nc4cccc(F)c4)[nH]n3)ncnc2c1 [AZD2811] (first compound max 1 µM, 7x7, partner max 1 µM)",-0.0741,0.0178,0.0995,-0.0211,-0.0008,-0.0566,0.0207,-0.0207,-0.0063,0.0053,-0.0135,0.0814,-0.0085,0.173,0.0653,0.0545,0.006,0.0841,0.0648,0.0518
"C=CCn1c(=O)c2cnc(Nc3ccc(N4CCN(C)CC4)cc3)nc2n1-c1cccc(C(C)(C)O)n1 [AZD1775] + C1CN(CCC1(C(=O)N[C@@H](CCO)C2=CC=C(C=C2)Cl)N)C3=NC=NC4=C3C=CN4 [Capivasertib] (first compound max 3 µM, partner max 3 µM)",-0.0226,-0.0602,-0.0301,-0.0306,-0.101,0.0291,-0.0174,-0.0627,0.0613,-0.0109,-0.0318,-0.0571,-0.0045,0.0514,-0.0475,-0.0422,-0.0687,-0.0524,-0.0694,0.144
